Test system: mice
Test: Acute toxicity in oral administration to mice
Assay type: in vivo
Description: The results of tests for an acute toxicity of the thus-obtained desired product when administered orally to mice are shown in the Table hereinbelow.
The results of tests of the thus-obtained desired product for an acute toxicity in oral administration to mice are shown in the Table hereinbelow.
Acute toxicity of 2,2'-di-(1,6,7-trihydroxy-3-methyl-
5-isopropyl-8-naphthaldehyde) in oral administration

| SMILES | LD50 |
| --- | --- |
| Cc1cc2c(C(C)C)c(O)c(O)c(C=O)c2c(O)c1-c1c(C)cc2c(C(C)C)c(O)c(O)c(C=O)c2c1O [Example 1, 2,2'-di-(1,6,7-trihydroxy-3-methyl-5-isopropyl-8-naphthaldehyde)] | 640 (450-768) mg/kg |
| Cc1cc2c(C(C)C)c(O)c(O)c(C=O)c2c(O)c1-c1c(C)cc2c(C(C)C)c(O)c(O)c(C=O)c2c1O [Example 2, 2,2'-di-(1,6,7-trihydroxy-3-methyl-5-isopropyl-8-naphthaldehyde)] | over 1,500 mg/kg |
| Cc1cc2c(C(C)C)c(O)c(O)c(C=O)c2c(O)c1-c1c(C)cc2c(C(C)C)c(O)c(O)c(C=O)c2c1O [Example 3, 2,2'-di-(1,6,7-trihydroxy-3-methyl-5-isopropyl-8-naphthaldehyde)] | 750 (646-870) mg/kg |
| Cc1cc2c(C(C)C)c(O)c(O)c(C=O)c2c(O)c1-c1c(C)cc2c(C(C)C)c(O)c(O)c(C=O)c2c1O [known preparation, 2,2'-di-(1,6,7-trihydroxy-3-methyl-5-isopropyl-8-naphthaldehyde), reference compound] | 383 (340-426) mg/kg |

— patent publication US5059717A, “Method for purification of 2,2'-di(1,6,7-trihydroxy-3-methyl-5-isopropyl-8-naphthaldehyde)” (priority 1990, dated 1991)
